Measurements: patent publication US20240043420A1, “7-AZAINDOLE COMPOUNDS FOR INHIBITION OF BCR-ABL TYROSINE KINASES” (EnLiven Therapeutics, Inc., priority 2020, published 2024)

Assays:
[1] = tested on: K562 cells; assay: K562 cell proliferation assay (CellTiter-Glo); type: cell-based; conditions: Homo sapiens, K562, 72 h, CellTiter-Glo viability, read-out: Cell Line (IC50, nM) K562
Description: (§1) K562 and HL60 cells, cultured in Iscove's Modified Dulbecco's Media (IMDM) supplemented with 10% FBS, were harvested at 50-80% confluency and plated at 2,000 cells per well (K562) or 1,500 cells per well (HL60) in 384-well tissue culture plates. A subset of wells contained media only (low control, LC). Compounds were serially diluted in DMSO. 40 nL of compound or DMSO only (high control, HC) were added to each well using an Echo 550 liquid handler (Labcyte). The plates were placed in a 37° C. incubator with 5% CO2 for 72 hours. Cell viability was measured using a CellTiter-Glo luminescent cell viability assay (Promega), which allows for relative quantification of metabolically active cells by luminescence-based measurements of intracellular ATP concentrations. Briefly, plates were removed from the incubator and equilibrated for 15 minutes at room temperature prior to the addition of 40 μL of CellTiter-Glo reagent. Plates were then incubated for 30 minutes at room temperature. Luminescence was measured using an EnSpire plate reader (Perkin Elmer). As noted above, luminescence values from wells with DMSO only or media without cells were used as high and low controls (HC and LC), respectively. Normalized percent viability was calculated as follows: percent viability=100×(Lumsample−LumLC)/(LumHC−LumLC).

[2] = tested on: HL60 cells; assay: HL60 cell proliferation assay (CellTiter-Glo); type: cell-based; conditions: Homo sapiens, HL-60, 72 h, CellTiter-Glo viability, read-out: Cell Line (IC50, nM) HL60
Description: as §1

[3] = target: T1, ABL1 (Homo sapiens, UniProt P00519); assay: Luminescence-based ABL kinase assay (ADP-Glo, 300 μM ATP); type: biochemical
T1 construct: purchased Carna Biosciences
Method in brief: (§2)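 Buffer: 50 mM HEPES pH 7.5, 10 mM MgCl2, 1 mM EGTA, 2 mM DTT, 0.05% BSA. Compound preincubated 30 min at RT with kinase (3.325 nM in enzyme solution), then started with a Peptide 2 (6 μM) and ATP (1.2 mM) solution, both stock levels; 90 min at RT.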

[4] = target: ABL1 (T315I) (Homo sapiens, UniProt P00519, T315I); assay: Luminescence-based ABL kinase assay (ADP-Glo, 300 μM ATP), T315I mutant; type: biochemical
Method in brief: as §2

Row | IC50 [1] [nM] | IC50 [2] [nM] | IC50 [3] [nM] | IC50 [4] [nM] | Structure (SMILES)
1 | 231 | > 10000 | 46.1 | 103 | CNc1ncccc1-c1c[nH]c2nc(NC(=O)C3CC3)ccc12 [Compound 37, N-[3-[2-(methylamino)pyridin-3-yl]-1H-pyrrolo[2,3-b]pyridin-6-yl]cyclopropanecarboxamide]
2 | 779 | > 10000 | 91.1 | 15.6 | COc1ccccc1-c1c[nH]c2nc(NC(=O)NCCN3CCOCC3)ccc12 [Compound 43, 3-[3-(2-methoxyphenyl)-1H-pyrrolo[2,3-b]pyridin-6-yl]-1-[2-(morpholin-4-yl)ethyl]urea]
3 | 777 | 9210 | 94.9 | 244 | O=C(Nc1ccc2c(-c3cccnc3OC(F)F)c[nH]c2n1)C1CC1 [Compound 48, N-[3-[2-(difluoromethoxy)pyridin-3-yl]-1H-pyrrolo[2,3-b]pyridin-6-yl]cyclopropanecarboxamide]
4 | 5170 | > 10000 | 218 | 417 | COc1nc2cn[nH]c2cc1-c1c[nH]c2nc(NC(=O)C3CC3)ccc12 [Compound 60, N-(3-[5-methoxy-1H-pyrazolo[4,3-b]pyridin-6-yl]-1H-pyrrolo[2,3-b]pyridin-6-yl)cyclopropanecarboxamide]
5 | 610 | > 10000 | 56.9 | 140 | CCOc1ncccc1-c1n[nH]c2nc(NC(=O)[C@@H]3C[C@@H]3F)ccc12 [Compound 64, (1S,2S)—N-[3-(2-ethoxypyridin-3-yl)-1H-pyrazolo[3,4-b]pyridin-6-yl]-2-fluorocyclopropane-1-carboxamide]
6 | 1140 | > 10000 | 157 | 37.7 | CCOc1cccc(F)c1-c1n[nH]c2nc(NC(=O)[C@@H]3C[C@@H]3F)ccc12 [Compound 67, (1S,2S)—N-(3-(2-ethoxy-6-fluorophenyl)-1H-pyrazolo[3,4-b]pyridin-6-yl)-2-fluorocyclopropane-1-carboxamide]
7 | 607 | 3690 | 78.2 | 19.2 | COc1ncccc1-c1c(F)[nH]c2nc(NC(=O)[C@@H]3C[C@@H]3F)ccc12 [Compound 68, (1S,2S)-2-fluoro-N-[2-fluoro-3-(2-methoxypyridin-3-yl)-1H-pyrrolo[2,3-b]pyridin-6-yl]cyclopropane-1-carboxamide]
8 | 162 | > 10000 | 27.6 | 27.4 | O=C(Nc1ccc2c(-c3cccnc3OC3CC3)c[nH]c2n1)[C@@H]1C[C@@H]1F [Compound 69, (1S,2S)—N-[3-(2-cyclopropoxypyridin-3-yl)-1H-pyrrolo[2,3-b]pyridin-6-yl]-2-fluorocyclopropane-1-carboxamide]
9 | 312 | > 10000 | 60.3 | 140 | O=C(Nc1ccc2c(-c3cccnc3OC(F)F)c[nH]c2n1)[C@@H]1C[C@@H]1F [Compound 70, (1S,2S)—N-[3-[2-(difluoromethoxy)pyridin-3-yl]-1H-pyrrolo[2,3-b]pyridin-6-yl]-2-fluorocyclopropane-1-carboxamide]
10 | 292 | 334 | 48 | 55.2 | O=C(Nc1ccc2c(-c3ccc4nccn4c3)c[nH]c2n1)[C@@H]1C[C@@H]1F [Compound 71, (1S,2S)-2-fluoro-N-(3-[imidazo[1,2-a]pyridin-6-yl]-1H-pyrrolo[2,3-b]pyridin-6-yl)cyclopropane-1-carboxamide]
11 | 1020 | > 10000 | 70.2 | 162 | COc1cc2nccn2cc1-c1c[nH]c2nc(NC(=O)[C@@H]3C[C@@H]3F)ccc12 [Compound 72, (1S,2S)-2-fluoro-N-(3-(7-methoxyimidazo[1,2-a]pyridin-6-yl)-1H-pyrrolo[2,3-b]pyridin-6-yl)cyclopropane-1-carboxamide]
12 | 94.8 | > 10000 | 17.8 | 139 | COc1cccc(OC)c1-c1n[nH]c2nc(NC(=O)[C@@H]3C[C@@H]3F)ccc12 [Compound 78, (1S,2S)—N-(3-(2,6-dimethoxyphenyl)-1H-pyrazolo[3,4-b]pyridin-6-yl)-2-fluorocyclopropane-1-carboxamide]
13 | 719 | > 10000 | 143 | 108 | COc1ccc(F)cc1-c1n[nH]c2nc(NC(=O)NCCN3CCN(C)CC3)ccc12 [Compound 79, 3-[3-(5-fluoro-2-methoxyphenyl)-1H-pyrazolo[3,4-b]pyridin-6-yl]-1-[2-(4-methylpiperazin-1-yl)ethyl]urea]
14 | 96.2 | > 10000 | 12.2 | 12.9 | COc1c(-c2c[nH]c3nc(NC(=O)[C@@H]4C[C@@H]4F)ccc23)ccc2cn[nH]c12 [Compound 81, (1S,2S)-2-fluoro-N-(3-(7-methoxy-1H-indazol-6-yl)-1H-pyrrolo[2,3-b]pyridin-6-yl)cyclopropane-1-carboxamide]
15 | 48.8 | > 10000 | 1.52 | 1.74 | COc1nc2[nH]cnc2cc1-c1c[nH]c2nc(NC(=O)[C@@H]3C[C@@H]3F)ccc12 [Compound 83, (1S,2S)-2-fluoro-N-(3-[5-methoxy-3H-imidazo[4,5-b]pyridin-6-yl]-1H-pyrrolo[2,3-b]pyridin-6-yl)cyclopropane-1-carboxamide]
16 | 150 | > 10000 | 37 | 14.9 | COc1cc2sncc2cc1-c1c[nH]c2nc(NC(=O)[C@@H]3C[C@@H]3F)ccc12 [Compound 84, (1S,2S)-2-fluoro-N-[3-(6-methoxy-1,2-benzothiazol-5-yl)-1H-pyrrolo[2,3-b]pyridin-6-yl]cyclopropane-1-carboxamide]
17 | 46 | 7250 | 5.34 | 27.8 | COc1cc2scnc2cc1-c1c[nH]c2nc(NC(=O)[C@@H]3C[C@@H]3F)ccc12 [Compound 85, (1S,2S)-2-fluoro-N-[3-(6-methoxy-1,3-benzothiazol-5-yl)-1H-pyrrolo[2,3-b]pyridin-6-yl]cyclopropane-1-carboxamide]
18 | 94.1 | > 10000 | 9.54 | 6.59 | COc1cc2ncoc2cc1-c1c[nH]c2nc(NC(=O)[C@@H]3C[C@@H]3F)ccc12 [Compound 87, (1S,2S)-2-fluoro-N-(3-(5-methoxybenzo[d]oxazol-6-yl)-1H-pyrrolo[2,3-b]pyridin-6-yl)cyclopropane-1-carboxamide]
19 | 84.1 | > 10000 | 18.6 | 30.9 | COc1cc2ocnc2cc1-c1c[nH]c2nc(NC(=O)[C@@H]3C[C@@H]3F)ccc12 [Compound 88, (1S,2S)-2-fluoro-N-(3-(6-methoxybenzo[d]oxazol-5-yl)-1H-pyrrolo[2,3-b]pyridin-6-yl)cyclopropane-1-carboxamide]
20 | 1100 | > 10000 | 21.7 | 15 | COc1c(-c2n[nH]c3nc(NC(=O)[C@@H]4C[C@@H]4F)ccc23)ccc2[nH]cnc12 [Compound 90, (1S,2S)-2-fluoro-N-[3-(4-methoxy-1H-1,3-benzodiazol-5-yl)-1H-pyrazolo[3,4-b]pyridin-6-yl]cyclopropane-1-carboxamide]
21 | 1080 | > 10000 | 166 | 24.6 | COc1ccccc1-c1c[nH]c2nc(NC(=O)[C@H]3C[C@H]3CO)ccc12 [Compound 91, (1S,2R)-2-(hydroxymethyl)-N-[3-(2-methoxyphenyl)-1H-pyrrolo[2,3-b]pyridin-6-yl]cyclopropane-1-carboxamide]
22 | 248 | > 10000 | 39.4 | 27.3 | COc1ncc(F)cc1-c1c[nH]c2nc(NC(=O)[C@@H]3C[C@@H]3F)ccc12 [Compound 92, (1S,2S)-2-fluoro-N-[3-(5-fluoro-2-methoxypyridin-3-yl)-1H-pyrrolo[2,3-b]pyridin-6-yl]cyclopropane-1-carboxamide]
23 | 55.6 | 7580 | 10.8 | 6.36 | O=C(Nc1ccc2c(-c3ccccc3OC3CC3)n[nH]c2n1)[C@@H]1C[C@@H]1F [Compound 94, (1S,2S)—N-(3-(2-cyclopropoxyphenyl)-1H-pyrazolo[3,4-b]pyridin-6-yl)-2-fluorocyclopropane-1-carboxamide]
24 | 862 | > 10000 | 8.87 | 8.93 | COc1cc2[nH]nnc2cc1-c1c[nH]c2nc(NC(=O)[C@@H]3C[C@@H]3F)ccc12 [Compound 96, (1S,2S)-2-fluoro-N-[3-(6-methoxy-1H-1,2,3-benzotriazol-5-yl)-1H-pyrrolo[2,3-b]pyridin-6-yl]cyclopropane-1-carboxamide]
